The values below come from ChEMBL document CHEMBL3045153, “Screening of flavonoids for antitubercular activity and their structureactivity relationships” (2013).

As a reminder, the MIC is the lowest concentration that inhibits growth of the organism. The low end stands for greater potency, the high end for weaker potency.

The structures appear in SMILES notation. Values after ≈ are worked out from the molar mass of the structure shown. Active and inactive are the calls of the source. The calls are words filed in the database; no cut-off is given here.

One assay relates to Mycobacterium tuberculosis. Kind of assay: Antitubercular activity against Mycobacterium tuberculosis H37Rv ATCC 27294 at 100 ug/ml measured every 24 hr by BACTEC 460 radiometric assay.
Settings: not given
It is filed as functional, organism-based.
As for `O=c1cc(-c2ccc(O)cc2)oc2cc(O)cc(O)c12`, the outcome was inactive.
Take `C[C@H]1O[C@H](Oc2c(-c3ccc(O)cc3)oc3cc(O)cc(O)c3c2=O)[C@@H](O)[C@@H](O)[C@@H]1O`: the outcome was inactive.
Still for that read-out and setting: the entry for `O=c1c(O)c(-c2ccccc2)oc2cc(O)cc(O)c12` is “inactive”; for `O=c1c(O)c(-c2ccc(O)cc2)oc2cc(O)cc(O)c12` it is “inactive”; for `COc1ccc([C@@H]2CC(=O)c3c(O)cc(O[C@@H]4O[C@H](CO[C@@H]5O[C@@H](C)[C@H](O)[C@@H](O)[C@H]5O)[C@@H](O)[C@H](O)[C@H]4O)cc3O2)cc1O` it is “inactive”.
Turning to `COc1ccc(-c2oc3cc(OC)c(OC)c(O)c3c(=O)c2OC)cc1O`, the outcome was inactive.
With `COc1c(O)cc2oc(-c3ccccc3)cc(=O)c2c1O`, the result was inactive.
As for `O=c1cc(-c2ccccc2)oc2cc(O)cc(O)c12`, the outcome was inactive.
As to `C[C@@H]1O[C@@H](OC[C@H]2O[C@@H](Oc3c(-c4ccc(O)c(O)c4)oc4cc(O)cc(O)c4c3=O)[C@H](O)[C@@H](O)[C@@H]2O)[C@H](O)[C@H](O)[C@H]1O`, the outcome was inactive.
As for `O=c1cc(-c2ccc(O)cc2)oc2cc(OC3O[C@H](CO)[C@@H](O)[C@H](O)[C@H]3O)cc(O)c12` (some centres not stated), the outcome was inactive.

The next assay concerns Mycobacterium tuberculosis. Kind of assay: Antitubercular activity against Mycobacterium tuberculosis H37Rv ATCC 27294 measured every 24 hr by BACTEC 460 radiometric assay. Type of assay: functional. To be noted: H37Rv ATCC 27294, 24 h.
Take `CN[C@@H]1[C@H](O[C@H]2[C@H](O[C@H]3[C@H](O)[C@@H](O)[C@H](N=C(N)N)[C@@H](O)[C@@H]3N=C(N)N)O[C@@H](C)[C@]2(O)C=O)O[C@@H](CO)[C@H](O)[C@H]1O` [STREPTOMYCIN]: the lowest concentration to inhibit growth (MIC) was 2 µg/mL (≈ 3.44 µM).
As for `COc1c(O)cc2oc(-c3ccc(O)cc3)cc(=O)c2c1O` [HISPIDULIN], the MIC stood at 100 µg/mL (≈ 333 µM).
For the molecule `O=c1cc(-c2ccccc2)oc2cc(O)c(O)c(O)c12` [BAICALEIN], the lowest concentration to inhibit growth (MIC) was 50 µg/mL (≈ 185 µM).
On to `O=c1c(O)c(-c2cc(O)c(O)c(O)c2)oc2cc(O)cc(O)c12` [MYRICETIN], for which the MIC turned out to be 50 µg/mL (≈ 157 µM).
Take `O=c1c(O)c(-c2ccc(O)c(O)c2)oc2cc(O)cc(O)c12` [QUERCETIN]: the MIC came to 50 µg/mL (≈ 165 µM).
The same measure, in the same setting: the same measure for `CO[C@H]1/C=C/O[C@@]2(C)Oc3c(C)c(O)c4c(O)c(c(/C=N/N5CCN(C)CC5)c(O)c4c3C2=O)NC(=O)/C(C)=C\C=C\[C@H](C)[C@H](O)[C@@H](C)[C@@H](O)[C@@H](C)[C@H](OC(C)=O)[C@@H]1C` [RIFAMPIN]: 2 µg/mL (≈ 2.43 µM).
On to `O=c1cc(-c2ccc(O)c(O)c2)oc2cc(O)cc(O)c12` [LUTEOLIN], for which the minimum inhibitory concentration (MIC) turned out to be 25 µg/mL (≈ 87.3 µM).
